# Measurements: PubChem BioAssay AID192 (DTP/NCI, 2004)
# “And” between values parts separate entries of the source, which are not always exact repeats. Equal entries are not always repeated. Toxic doses and inconclusive results are not listed.
# Test system: BDF1 mice, B16 melanoma ip, median survival T/C
# Assay: NCI In Vivo Anticancer Drug Screen. Data for tumor model B16 Melanoma (intraperitoneal) in B6D2F1 (BDF1) mice
# Settings: endpoint: median survival time, higher = longer survival
# Method in brief: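 Vehicle-treated animals serve as the reference (C); treated animals (T) are scored for survival or tumor size after tumor transplantation.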
# [1] = dose: 12.5 mg/kg/injection, schedule: Q04DX003 (ip), vehicle: saline
# [2] = dose: 25.0 mg/kg/injection, schedule: Q04DX003 (ip), vehicle: saline
# [3] = dose: 50.0 mg/kg/injection, schedule: Q04DX003 (ip), vehicle: saline
# [4] = dose: 100.0 mg/kg/injection, schedule: Q04DX003 (ip), vehicle: Klucel (hydroxypropylcellulose) (HPC)
# [5] = dose: 25.0 mg/kg/injection, schedule: Q01DX009 (ip), vehicle: saline with Tween-80
# [6] = dose: 5.0 mg/kg/injection, schedule: Q01DX009 (ip), vehicle: Klucel (hydroxypropylcellulose) (HPC)
# [7] = dose: 10.0 mg/kg/injection, schedule: Q01DX009 (ip), vehicle: Klucel (hydroxypropylcellulose) (HPC)
# [8] = dose: 6.25 mg/kg/injection, schedule: Q01DX009 (ip), vehicle: saline
# [9] = dose: 12.5 mg/kg/injection, schedule: Q01DX009 (ip), vehicle: saline
# [10] = dose: 25.0 mg/kg/injection, schedule: Q01DX009 (ip), vehicle: saline
# [11] = dose: 50.0 mg/kg/injection, schedule: Q01DX009 (ip), vehicle: saline
# [12] = dose: 100.0 mg/kg/injection, schedule: Q01DX009 (ip), vehicle: saline
# [13] = dose: 200.0 mg/kg/injection, schedule: Q01DX009 (ip), vehicle: saline
# [14] = dose: 25.0 mg/kg/injection, schedule: Q01DX009 (ip), vehicle: Klucel (hydroxypropylcellulose) (HPC)
# [15] = dose: 50.0 mg/kg/injection, schedule: Q01DX009 (ip), vehicle: Klucel (hydroxypropylcellulose) (HPC)
# [16] = dose: 100.0 mg/kg/injection, schedule: Q01DX009 (ip), vehicle: Klucel (hydroxypropylcellulose) (HPC)
# [17] = dose: 200.0 mg/kg/injection, schedule: Q01DX009 (ip), vehicle: Klucel (hydroxypropylcellulose) (HPC)
# [18] = dose: 50.0 mg/kg/injection, schedule: Q01DX009 (ip), vehicle: saline with Tween-80
# [19] = dose: 400.0 mg/kg/injection, schedule: Q01DX009 (ip), vehicle: saline
# [20] = dose: 200.0 mg/kg/injection, schedule: Q01DX009 (ip), vehicle: saline with Tween-80
# [21] = dose: 0.75 mg/kg/injection, schedule: Q01DX009 (ip), vehicle: saline with Tween-80
# [22] = dose: 1.5 mg/kg/injection, schedule: Q01DX009 (ip), vehicle: saline with Tween-80
# [23] = dose: 400.0 mg/kg/injection, schedule: Q01DX009 (ip), vehicle: Klucel (hydroxypropylcellulose) (HPC)
# [24] = dose: 100.0 mg/kg/injection, schedule: Q01DX009 (ip), vehicle: saline with Tween-80
smiles,measurement,setting,value
O=C(CCN1CCCCC1)c1cccc([N+](=O)[O-])c1,T/C,[1],105 % of control
same,T/C,[2],113 % of control
same,T/C,[3],100 % of control
same,T/C,[4],94 % of control
Nc1ccn(C2OC(COC(=O)C34CC5CC(CC(C5)C3)C4)C(O)C2O)c(=O)n1 (stereo unspecified),T/C,"dose: 6.25 mg/kg/injection, schedule: Q01DX009 (ip), vehicle: saline with Tween-80",115 % of control
same,T/C,"dose: 12.5 mg/kg/injection, schedule: Q01DX009 (ip), vehicle: saline with Tween-80",153 % of control
same,T/C,[5],155 % of control and 191 % of control
CNC(=O)N(C)c1cc(N(C)C)nc(OC)n1,T/C,[6],101 % of control
same,T/C,[7],93 % of control
same,T/C,"dose: 20.0 mg/kg/injection, schedule: Q01DX009 (ip), vehicle: Klucel (hydroxypropylcellulose) (HPC)",94 % of control
CN(C)CCCNC(=S)S,T/C,[8],100 % of control
same,T/C,[9],97 % of control
same,T/C,[1],111 % of control
same,T/C,[10],110 % of control
same,T/C,[2],111 % of control
same,T/C,[3],94 % of control
Nc1ccccc1O,T/C,[11],93 % of control and 99 % of control
same,T/C,[12],101 % of control and 93 % of control
same,T/C,[13],91 % of control and 94 % of control
COc1ccc(CCNC(C)=O)cc1OC,T/C,[14],91 % of control
same,T/C,[15],89 % of control
O=c1ccc2ccccc2o1,T/C,[14],100 % of control
same,T/C,[15],105 % of control
same,T/C,[16],111 % of control
same,T/C,[17],101 % of control
O=S1(=O)C=Cc2ccccc21,T/C,[15],90 % of control
same,T/C,[16],88 % of control
same,T/C,[17],88 % of control
COc1ccc(NC(=O)Nc2cccc(Cl)c2C)cc1,T/C,[5],100 % of control
same,T/C,[18],102 % of control
CCCN(CCC)C(=O)c1cccnc1,T/C,[12],102 % of control
same,T/C,[13],106 % of control
same,T/C,[19],113 % of control
CCCCNCC1COc2cccc(OCC)c2O1 (stereo unspecified),T/C,"dose: 3.12 mg/kg/injection, schedule: Q01DX009 (ip), vehicle: saline",120 % of control
same,T/C,[8],95 % of control
same,T/C,[9],97 % of control
same,T/C,[10],105 % of control
same,T/C,[11],100 % of control
CCC[CH2][Sn]1([CH2]CCC)[O]OC2(CCCCC2)[O]1,T/C,"dose: 1.25 mg/kg/injection, schedule: Q01DX009 (ip), vehicle: saline with Tween-80",113 % of control
same,T/C,"dose: 2.5 mg/kg/injection, schedule: Q01DX009 (ip), vehicle: saline with Tween-80",100 % of control
O=[N+]([O-])c1ccc(/C=C2/c3cc(Cl)ccc3-c3c(Cl)cc(Cl)cc32)o1,T/C,[11],93 % of control
same,T/C,[12],100 % of control
same,T/C,[13],90 % of control
same,T/C,[19],88 % of control
COc1ccc(Cl)cc1NC(=O)c1ccccc1C(=O)O,T/C,[16],100 % of control
same,T/C,[17],94 % of control
Cc1cc2nc3[nH]c4ccccc4c3nc2cc1C,T/C,[5],97 % of control
same,T/C,[18],97 % of control
same,T/C,[20],86 % of control
CCC[CH2][Sn]1([CH2]CCC)[O]OC(c2ccc(C)cc2)[O]1 (stereo unspecified),T/C,"dose: 0.38 mg/kg/injection, schedule: Q01DX009 (ip), vehicle: saline with Tween-80",96 % of control
same,T/C,[21],96 % of control
same,T/C,[22],101 % of control
same,T/C,"dose: 3.13 mg/kg/injection, schedule: Q01DX009 (ip), vehicle: saline with Tween-80",115 % of control
O=[N+]([O-])c1cccc(N=P(c2ccccc2)(c2ccccc2)c2ccccc2)c1,T/C,[16],97 % of control
same,T/C,[17],101 % of control
same,T/C,[23],94 % of control
CCOC(=O)Nc1ccc([N+](=O)[O-])cc1,T/C,[16],113 % of control
same,T/C,[17],103 % of control
Cc1cccc(-c2nc3cc(Cl)ccc3c(=O)o2)c1,T/C,[14],100 % of control
same,T/C,"dose: 25.0 mg/kg/injection, schedule: Q04DX003 (ip), vehicle: Klucel (hydroxypropylcellulose) (HPC)",103 % of control
same,T/C,[15],107 % of control
same,T/C,"dose: 50.0 mg/kg/injection, schedule: Q04DX003 (ip), vehicle: Klucel (hydroxypropylcellulose) (HPC)",103 % of control
same,T/C,[16],100 % of control
same,T/C,[4],106 % of control
Nc1nc(Cl)nc2c1ncn2C1OC(CO)C(O)C1O (stereo unspecified),T/C,[10],95 % of control
same,T/C,[11],93 % of control
same,T/C,[12],95 % of control
CC(=O)OC1CCC(C2CCCCC2)CC1 (stereo unspecified),T/C,[24],111 % of control
same,T/C,[20],118 % of control
CC[n+]1ccc(Nc2ccc(NC(=O)c3ccc(C(=O)Nc4ccc(Nc5cc[n+](CC)c(N)n5)cc4)cc3)cc2)nc1N,T/C,"dose: 25.0 mg/kg/injection, schedule: Q01DX009 (ip), vehicle: suspension in saline",162 % of control
same,T/C,"dose: 50.0 mg/kg/injection, schedule: Q01DX009 (ip), vehicle: suspension in saline",163 % of control
COc1cc2cc[n+]3c(C)c4cc5c(cc4cc3c2cc1OC)OCO5 (tested in a mixture with another compound),T/C,[8],94 % of control
same,T/C,[9],105 % of control
Cc1cc(Cl)ccc1OCC(=O)Nc1nc(N)nc(N)n1,T/C,"dose: 12.5 mg/kg/injection, schedule: Q04DX009 (ip), vehicle: Klucel (hydroxypropylcellulose) (HPC)",88 % of control
same,T/C,"dose: 25.0 mg/kg/injection, schedule: Q04DX009 (ip), vehicle: Klucel (hydroxypropylcellulose) (HPC)",92 % of control
same,T/C,"dose: 50.0 mg/kg/injection, schedule: Q04DX009 (ip), vehicle: Klucel (hydroxypropylcellulose) (HPC)",87 % of control
CC(C)C(C(=O)c1ccccc1)C(c1ccccc1)c1ccccc1 (stereo unspecified),T/C,"dose: 100.0 mg/kg/injection, schedule: Q04DX003 (ip), vehicle: other",92 % of control
same,T/C,"dose: 200.0 mg/kg/injection, schedule: Q04DX003 (ip), vehicle: other",94 % of control
CCC[CH2][Hg][Cl],T/C,[21],91 % of control
same,T/C,[22],92 % of control
COc1ccccc1NC(=O)Nc1cccc(C)c1C,T/C,[16],87 % of control
same,T/C,[17],86 % of control
O=C(COc1ccc(Cl)cc1)Nc1ccccc1F,T/C,[5],102 % of control
same,T/C,[18],92 % of control
same,T/C,[24],92 % of control
C[C@H]1CCC/C=C/[C@@H]2C[C@H](O)C[C@H]2[C@H](O)/C=C/C(=O)O1,T/C,"dose: 2.5 mg/kg/injection, schedule: Q01DX009 (ip), vehicle: Klucel (hydroxypropylcellulose) (HPC)",116 % of control
same,T/C,[6],104 % of control
same,T/C,[7],103 % of control
C[As](C)[Se]C1OC(CO)C(O)C(O)C1O (stereo unspecified),T/C,"dose: 12.5 mg/kg/injection, schedule: Q01DX009 (ip), vehicle: Klucel (hydroxypropylcellulose) (HPC)",112 % of control
same,T/C,[14],106 % of control
same,T/C,[15],104 % of control
NC(N)=Nc1ccc(C(=O)Oc2ccc([N+](=O)[O-])cc2[N+](=O)[O-])cc1,T/C,[14],97 % of control
same,T/C,[15],91 % of control
COC(=O)[C@H]1[C@H]2C[C@@H]3c4[nH]c5ccccc5c4CCN3C[C@H]2C[C@@H](OC(=O)c2cc(OC)c(OC)c(OC)c2)[C@@H]1OC,T/C,"dose: 3.0 micrograms/kg/injection, schedule: Q01DX009 (ip), vehicle: saline",90 % of control
same,T/C,"dose: 6.0 micrograms/kg/injection, schedule: Q01DX009 (ip), vehicle: saline",98 % of control
same,T/C,"dose: 13.0 micrograms/kg/injection, schedule: Q01DX009 (ip), vehicle: saline",95 % of control
same,T/C,"dose: 27.0 micrograms/kg/injection, schedule: Q01DX009 (ip), vehicle: saline",95 % of control
same,T/C,"dose: 55.0 micrograms/kg/injection, schedule: Q01DX009 (ip), vehicle: saline",86 % of control
CC(C)CC(N)C(=O)OCc1ccccc1 (stereo unspecified),T/C,"dose: 100.0 mg/kg/injection, schedule: Q04DX003 (ip), vehicle: saline",109 % of control
same,T/C,[13],93 % of control
same,T/C,"dose: 200.0 mg/kg/injection, schedule: Q04DX003 (ip), vehicle: saline",104 % of control
same,T/C,[19],91 % of control
same,T/C,"dose: 400.0 mg/kg/injection, schedule: Q04DX003 (ip), vehicle: saline",100 % of control
O=C(Nc1ccccc1F)Nc1ccccc1Cl,T/C,[14],96 % of control
same,T/C,[15],92 % of control
same,T/C,[16],92 % of control
same,T/C,[17],95 % of control
CCOc1cc(N2CCOCC2)c(OCC)cc1N,T/C,[8],95 % of control
same,T/C,[9],102 % of control
same,T/C,[10],100 % of control
CCCCCCCCCCCCSCCNC(=O)CCl,T/C,[16],112 % of control
same,T/C,[17],100 % of control
same,T/C,[23],96 % of control
CC12COC(=O)CC1CCC1C2CCC2(C)C1CCC2(C)O (stereo unspecified),T/C,[18],94 % of control
same,T/C,[24],94 % of control
same,T/C,[20],88 % of control
